The target in this assay is T1, Tyrosinase (Homo sapiens) (UniProt P14679).
T1 sequence (whole entry): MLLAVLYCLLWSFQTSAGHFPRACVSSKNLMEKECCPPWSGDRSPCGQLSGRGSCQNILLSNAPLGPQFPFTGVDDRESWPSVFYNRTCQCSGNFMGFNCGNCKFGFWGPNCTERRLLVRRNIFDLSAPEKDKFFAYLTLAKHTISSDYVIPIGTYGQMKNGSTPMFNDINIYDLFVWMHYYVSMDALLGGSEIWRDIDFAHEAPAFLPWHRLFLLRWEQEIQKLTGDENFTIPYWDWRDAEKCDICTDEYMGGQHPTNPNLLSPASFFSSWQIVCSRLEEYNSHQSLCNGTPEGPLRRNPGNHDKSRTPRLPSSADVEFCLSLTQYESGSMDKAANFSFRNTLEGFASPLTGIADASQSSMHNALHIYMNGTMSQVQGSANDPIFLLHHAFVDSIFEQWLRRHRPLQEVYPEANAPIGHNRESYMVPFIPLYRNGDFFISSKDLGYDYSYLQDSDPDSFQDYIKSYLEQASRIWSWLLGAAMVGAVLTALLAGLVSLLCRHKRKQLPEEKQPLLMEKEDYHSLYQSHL
As to the kind of experiment: Inhibition of tyrosinase at 800 uM by dopachrome method.

In general, inhibition refers to how much of the control response was suppressed.

Peptide text beside a SMILES is read from it.

Take `CC(C)C[C@@H]1NC(=O)[C@@H]2CCCN2C(=O)[C@H]([C@@H](C)O)NC(=O)[C@@H]2CCCN2C(=O)[C@H]([C@@H](C)O)NC(=O)CNC(=O)[C@H](Cc2ccccc2)NC(=O)[C@H](Cc2ccccc2)NC1=O` (cyclo(FFGTPTPL)): the inhibition came to 15%.

These data come from ChEMBL document CHEMBL1159263, “Cyclic peptides from higher plants, Part 15. Pseudostellarin H, a new cyclic octapeptide from Pseudostellaria heterophylla” (J Nat Prod, 1995).
